Measurements: ChEMBL document CHEMBL1156904, “Part II: piperazinyl-glutamate-pyridines as potent orally bioavailable P2Y12 antagonists for inhibition of platelet aggregation” (Bioorg Med Chem Lett, 2010)
In brackets after ≈: the same amount, converted by molar mass.

How the values were obtained:
P2Y purinoceptor 12 [1] = target: T1, P2Y purinoceptor 12 (Homo sapiens, UniProt Q9H244); test: Inhibition of human P2Y12 receptor expressed in CHO cells
[2] = Metabolic stability in human microsomes; type: ADME, Microsome
[3] = Antiplatelet activity in human platelet rich plasma assessed as inhibition of ADP-induced platelet aggregation; type: functional
[4] = Clearance in Sprague-Dawley rat at 2 mg/kg, iv and 5 mg/kg, po; type: ADME, organism-based; conditions: in vivo
[5] = Effective half life in Sprague-Dawley rat at 2 mg/kg, iv and 5 mg/kg, po; type: ADME, organism-based; conditions: in vivo, read-out: t1/2eff (converted)
[6] = Volume of distribution at steady state in Sprague-Dawley rat at 2 mg/kg, iv and 5 mg/kg, po; type: ADME, organism-based; conditions: in vivo, read-out: Vdss
[7] = Metabolic stability in rat microsomes; type: ADME, Microsome
[8] = Antiplatelet activity in human platelet rich plasma assessed as inhibition of ADP-induced platelet aggregation relative to AZD-6140; type: functional
[9] = Clearance in Beagle dog at 0.2 mg/kg, iv and 0.2 mg/kg, po; type: ADME, organism-based, Canis lupus familiaris; conditions: in vivo
[10] = Effective half life in Beagle dog at 0.2 mg/kg, iv and 0.2 mg/kg, po; type: ADME, organism-based, Canis lupus familiaris; conditions: in vivo
[11] = Volume of distribution at steady state in Beagle dog at 0.2 mg/kg, iv and 0.2 mg/kg, po; type: ADME, organism-based, Canis lupus familiaris; conditions: in vivo, read-out: Vdss
[12] = Protein binding in human plasma assessed as fraction unbound at 0.2 uM
Rattus norvegicus [13] = test: Toxicity in rat administered as 7 day repeat dose; type: organism-based; conditions: in vivo, 168 h
[14] = Solubility at pH 6.5; type: physicochemical; conditions: buffer
[15] = target: Voltage-gated inwardly rectifying potassium channel KCNH2 (Homo sapiens, UniProt Q12809); test: Inhibition of human ERG
[16] = Volume of distribution at steady state in Beagle dog at 0.5 mg/kg, iv and 1 mg/kg, po; type: ADME, organism-based, Canis lupus familiaris; conditions: in vivo, read-out: Vdss
[17] = Solubility at pH 2.0; type: physicochemical; conditions: buffer
[18] = Clearance in Beagle dog at 0.5 mg/kg, iv and 1 mg/kg, po; type: ADME, organism-based, Canis lupus familiaris; conditions: in vivo
[19] = Protein binding in human plasma assessed as fraction unbound at 10 uM
[20] = Solubility at pH 9.0; type: physicochemical; conditions: buffer
[21] = Effective half life in Beagle dog at 0.5 mg/kg, iv and 1 mg/kg, po; type: ADME, organism-based, Canis lupus familiaris; conditions: in vivo
[22] = Protein binding in human plasma assessed as fraction unbound at 2 uM
[23] = Antiplatelet activity in human platelet rich plasma assessed as inhibition of ADP-induced platelet aggregation by chronolog PRP aggregometry assay; type: functional
P2Y purinoceptor 12 [24] = target: T1, P2Y purinoceptor 12; test: Inhibition of human P2Y12 receptor expressed in CHO cells in presence of 0.4% human serum albumin
in vivo = conditions: Sprague-Dawley, rat, po, 5 mg/kg
Rattus norvegicus [25] = test: Toxicity in rat administered as single dose; type: organism-based; conditions: in vivo

T1 sequence (Q9H244 whole entry): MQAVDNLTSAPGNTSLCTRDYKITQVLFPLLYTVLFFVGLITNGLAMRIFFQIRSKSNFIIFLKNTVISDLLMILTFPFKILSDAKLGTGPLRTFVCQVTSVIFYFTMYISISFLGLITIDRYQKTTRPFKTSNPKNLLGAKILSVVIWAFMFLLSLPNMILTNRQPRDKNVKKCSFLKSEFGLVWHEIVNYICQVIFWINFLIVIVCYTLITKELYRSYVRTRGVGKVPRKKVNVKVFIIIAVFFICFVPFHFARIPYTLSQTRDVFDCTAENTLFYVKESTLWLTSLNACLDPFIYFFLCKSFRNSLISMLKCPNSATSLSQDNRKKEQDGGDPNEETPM
Voltage-gated inwardly rectifying potassium channel KCNH2, sequence (Q12809 whole entry): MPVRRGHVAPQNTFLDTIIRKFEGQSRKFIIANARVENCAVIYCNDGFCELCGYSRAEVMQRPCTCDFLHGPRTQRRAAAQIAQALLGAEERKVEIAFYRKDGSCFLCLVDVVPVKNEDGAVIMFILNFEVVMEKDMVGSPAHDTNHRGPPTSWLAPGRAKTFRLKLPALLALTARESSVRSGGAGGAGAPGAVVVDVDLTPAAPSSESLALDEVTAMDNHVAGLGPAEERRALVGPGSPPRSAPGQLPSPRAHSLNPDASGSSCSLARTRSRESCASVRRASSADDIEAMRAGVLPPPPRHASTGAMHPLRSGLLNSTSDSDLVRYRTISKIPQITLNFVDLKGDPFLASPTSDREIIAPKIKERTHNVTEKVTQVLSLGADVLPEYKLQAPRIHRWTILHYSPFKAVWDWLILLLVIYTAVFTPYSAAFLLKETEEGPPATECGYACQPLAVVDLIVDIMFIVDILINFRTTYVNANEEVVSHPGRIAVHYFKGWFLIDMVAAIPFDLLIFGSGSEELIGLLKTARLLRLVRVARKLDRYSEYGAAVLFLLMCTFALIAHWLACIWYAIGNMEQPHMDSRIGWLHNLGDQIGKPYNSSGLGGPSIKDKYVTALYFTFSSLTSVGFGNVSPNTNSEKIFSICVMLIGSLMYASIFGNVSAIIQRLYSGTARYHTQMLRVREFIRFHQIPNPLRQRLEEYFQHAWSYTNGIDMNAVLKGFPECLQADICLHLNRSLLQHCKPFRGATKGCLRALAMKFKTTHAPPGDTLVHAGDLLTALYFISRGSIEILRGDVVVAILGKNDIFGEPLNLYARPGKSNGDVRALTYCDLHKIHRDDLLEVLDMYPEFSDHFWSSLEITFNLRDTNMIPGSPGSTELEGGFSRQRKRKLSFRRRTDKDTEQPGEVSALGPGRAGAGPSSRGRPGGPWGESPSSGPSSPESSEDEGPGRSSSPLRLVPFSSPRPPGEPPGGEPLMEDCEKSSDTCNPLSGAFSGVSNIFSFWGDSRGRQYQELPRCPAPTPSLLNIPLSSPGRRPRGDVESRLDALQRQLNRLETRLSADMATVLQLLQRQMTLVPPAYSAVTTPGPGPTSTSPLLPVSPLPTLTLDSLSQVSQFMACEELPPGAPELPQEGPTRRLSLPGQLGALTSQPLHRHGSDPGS

Ki (P2Y purinoceptor 12 [1]) [nM] | Stability [2] | IC50 [3] [nM] | clearance [4] [mL/min/kg] | half-life [5] [min] | Vd [6] [L/kg] | Stability [7] | Structure (SMILES) | fold change (FC) [8] | further results
15 | Stable | 2300 | 141 | 48 | 10 | Stable | CCCCCOC(=O)N1CCN(C(=O)[C@H](CCC(=O)O)NC(=O)c2cc(N3CCN(C)CC3)cc(-c3ccccc3)n2)CC1 | 2.5 | 
5 | Stable | 660 | 41 | 12 | 0.8 | Stable | CCCCCOC(=O)N1CCN(C(=O)[C@H](CCC(=O)O)NC(=O)c2cc(N3CC[C@H](OCC(=O)N(C)C)C3)cc(-c3ccccc3)n2)CC1 | 0.75 | 
6.5 | Stable | 2400 | 44 | 36 | 2.2 | Stable | CCCCCOC(=O)N1CCN(C(=O)[C@H](CCC(=O)O)NC(=O)c2cc(N3CCC(C(N)=O)CC3)cc(-c3ccccc3)n2)CC1 | 0.9 | bioavailability (in vivo): 2%
22 | Stable | 2300 | 70 | 24 | 2.4 | Stable | CCCCCOC(=O)N1CCN(C(=O)[C@H](CCC(=O)O)NC(=O)c2cc(N3CCN(C(C)=O)CC3)cc(-c3ccccc3)n2)CC1 | 2.7 | 
7.3 | Stable | 1700 | 47 | 24 | 1.8 | Stable | CCCCCOC(=O)N1CCN(C(=O)[C@H](CCC(=O)O)NC(=O)c2cc(N3CCCC(CN4CCCC4)C3)cc(-c3ccccc3)n2)CC1 (stereo partly drawn) | 1.5 | 
1.7 | Stable | 2600 |  |  |  | Stable | CCCCCOC(=O)N1CCN(C(=O)[C@H](CCC(=O)O)NC(=O)c2cc(N3CC[C@H](C(=O)N4CCCC4)C3)cc(-c3ccccc3)n2)CC1 | 2.8 | 
0.58 | Stable | 650 | 11 | 18 | 0.3 | Stable | CCCCCOC(=O)N1CCN(C(=O)[C@H](CCC(=O)O)NC(=O)c2cc(N3CCC(C(=O)NCC)CC3)cc(-c3ccccc3)n2)CC1 | 1 | 
3.2 | Stable | 890 |  |  |  | Stable | CCCCOC(=O)N1CCN(C(=O)[C@H](CCC(=O)O)NC(=O)c2cc(N3CCC(CN(C)C)CC3)cc(-c3ccccc3)n2)CC1 | 1.3 | 
0.79 | Stable | 1100 |  |  |  | Stable | CCCCOC(=O)N1CCN(C(=O)[C@H](CCC(=O)O)NC(=O)c2cc(N3CCC(CN4CCCC4=O)CC3)cc(-c3ccccc3)n2)CC1 | 1.5 | 
3.5 | Stable | 330 | 87 | 18 | 2.1 | Stable | CCCCCOC(=O)N1CCN(C(=O)[C@H](CCC(=O)O)NC(=O)c2cc(N3CC[C@@H](OCC(=O)N(CC)CC)C3)cc(-c3ccccc3)n2)CC1 | 0.38 | 
6.3 | Stable | 1900 |  |  |  | Stable | CCCCCOC(=O)N1CCN(C(=O)[C@H](CCC(=O)O)NC(=O)c2cc(N3CCN(C(N)=O)CC3)cc(-c3ccccc3)n2)CC1 | 1.8 | 
2.8 | Stable | 710 |  |  |  | Stable | CCCCCOC(=O)N1CCN(C(=O)[C@H](CCC(=O)O)NC(=O)c2cc(N3CCN(C(=O)CN(C)C)CC3)cc(-c3ccccc3)n2)CC1 | 2.5 | 

Structure (SMILES) | Ki (P2Y purinoceptor 12 [1]) [nM] | Stability [2] | IC50 [3] [nM] | clearance [4] [mL/min/kg] | half-life [5] [min] | Vd [6] [L/kg] | Stability [7] | fold change (FC) [8] | further results
CCCCCOC(=O)N1CCN(C(=O)[C@H](CCC(=O)O)NC(=O)c2cc(N3CCC(C(=O)N4CCC4)CC3)cc(-c3ccccc3)n2)CC1 | 1.2 | Stable | 410 | 9 | 18 | 0.2 | Stable | 0.64 | 
CCCCCOC(=O)N1CCN(C(=O)[C@H](CCC(=O)O)NC(=O)c2cc(N3CCC(COC)CC3)cc(-c3ccccc3)n2)CC1 |  | Stable | 3900 |  |  |  | Stable | 3.3 | clearance [9]: 1 mL/min/kg; half-life [10]: 90 min; Vd [11]: 0.14 L/kg
CCCCCOC(=O)N1CCN(C(=O)[C@H](CCC(=O)O)NC(=O)c2cc(N3CCC(C(=O)N4CCCC4)CC3)cc(-c3ccccc3)n2)CC1 | 2.8 | Stable | 400 | 5 | 66 | 0.5 | Stable | 0.65 | fraction unbound at 0.2 µM [12]: 0.053; Activity (Rattus norvegicus [13]): Non-toxic; solubility [14]: 48 µM (≈ 33.2 µg/mL); IC50 [15]: > 90 µM; Vd [16]: 0.18 L/kg; solubility [17]: 299 µM (≈ 207 µg/mL); clearance [18]: 2 mL/min/kg; fraction unbound at 10 µM [19]: 0.061; solubility [20]: 1290 µM (≈ 892 µg/mL); Kb [3]: 68 nM; half-life [21]: 60 min; fraction unbound at 2 µM [22]: 0.057; IC50 [23]: 325 nM; Ki (P2Y purinoceptor 12 [24]): 6.7 nM
CCCCCOC(=O)N1CCN(C(=O)[C@H](CCC(=O)O)NC(=O)c2cc(N3CCC(CCN(C)C)CC3)cc(-c3ccccc3)n2)CC1 | 12 | Stable | 390 | 145 | 24 | 5.1 | Stable | 0.54 | 
CCCCOC(=O)N1CCN(C(=O)[C@H](CCC(=O)O)NC(=O)c2cc(N3CCC(C(=O)N4CCCC4)CC3)cc(-c3ccccc3)n2)CC1 | 2.1 | Stable | 360 | 5 | 90 | 0.7 | Stable | 0.54 | fraction unbound at 0.2 µM [12]: 0.034; Activity (Rattus norvegicus [25]): Non-toxic; solubility [14]: 195 µM (≈ 132 µg/mL); IC50 [15]: > 90 µM; Vd [16]: 0.22 L/kg; solubility [17]: 921 µM (≈ 623 µg/mL); clearance [18]: 3 mL/min/kg; fraction unbound at 10 µM [19]: 0.033; solubility [20]: 969 µM (≈ 656 µg/mL); Kb [3]: 49 nM; half-life [21]: 48 min; fraction unbound at 2 µM [22]: 0.044; IC50 [23]: 255 nM; Ki (P2Y purinoceptor 12 [24]): 6.3 nM
CCCCCOC(=O)N1CCN(C(=O)[C@H](CCC(=O)O)NC(=O)c2cc(N3CCC(C(=O)N(CC)CC)CC3)cc(-c3ccccc3)n2)CC1 | 4 | Stable | 520 | 13 | 36 | 2.5 | Stable | 0.65 | clearance [9]: 2 mL/min/kg; half-life [10]: 42 min; Vd [11]: 0.12 L/kg
CCCCOC(=O)N1CCN(C(=O)[C@H](CCC(=O)O)NC(=O)c2cc(N3CCC(C(=O)N(CC)CC)CC3)cc(-c3ccccc3)n2)CC1 | 1.1 | Stable | 430 | 24 | 24 | 0.9 | Stable | 0.71 | 
